Laboratory results as given in paper PMC4861903, “Synthesis of a highly water-soluble acacetin prodrug for treating experimental atrial fibrillation in beagle dogs” (Scientific Reports, 2016).
Where two headings read alike, the source gives them in different places.

Columns and labels:
[1] = biological target: T1, IKACh (acetylcholine-activated K+ current) (Rattus norvegicus, UniProt P48548+P63251); assay: Whole-cell IKACh elicited by 5 μM carbachol in rat atrial myocytes; assay type: cell-based; conditions: 30 μM, at −100 mV, n = 5
T1 construct: endogenous in cells; host or cells: atrial myocytes dissociated from male Sprague-Dawley rats
T1 sequence (P63251 1-501): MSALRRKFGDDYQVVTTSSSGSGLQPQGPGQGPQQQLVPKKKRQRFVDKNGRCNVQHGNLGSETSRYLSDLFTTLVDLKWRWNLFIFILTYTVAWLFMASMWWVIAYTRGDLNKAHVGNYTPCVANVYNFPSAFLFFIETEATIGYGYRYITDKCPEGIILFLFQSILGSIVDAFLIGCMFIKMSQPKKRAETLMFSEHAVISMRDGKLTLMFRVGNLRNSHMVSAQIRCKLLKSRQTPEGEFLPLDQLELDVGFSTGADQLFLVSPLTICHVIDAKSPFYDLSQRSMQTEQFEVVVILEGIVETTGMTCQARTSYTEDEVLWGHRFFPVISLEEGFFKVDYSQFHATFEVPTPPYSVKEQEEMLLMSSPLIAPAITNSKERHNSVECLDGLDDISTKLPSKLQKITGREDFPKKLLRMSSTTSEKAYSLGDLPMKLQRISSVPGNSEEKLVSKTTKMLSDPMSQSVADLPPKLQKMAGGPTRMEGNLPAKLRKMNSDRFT
T1 sequence (P48548 1-419): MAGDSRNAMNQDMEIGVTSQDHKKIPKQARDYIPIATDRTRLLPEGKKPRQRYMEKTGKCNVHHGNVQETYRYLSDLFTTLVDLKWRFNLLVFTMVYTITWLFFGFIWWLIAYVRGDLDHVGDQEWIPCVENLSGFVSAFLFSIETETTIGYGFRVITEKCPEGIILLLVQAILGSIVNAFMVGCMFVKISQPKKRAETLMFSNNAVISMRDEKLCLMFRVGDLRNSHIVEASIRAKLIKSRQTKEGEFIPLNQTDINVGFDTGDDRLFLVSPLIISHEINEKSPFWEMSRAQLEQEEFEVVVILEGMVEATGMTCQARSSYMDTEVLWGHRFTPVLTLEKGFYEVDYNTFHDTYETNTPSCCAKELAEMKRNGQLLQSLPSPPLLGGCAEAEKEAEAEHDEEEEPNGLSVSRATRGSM
Procedure: Whole-cell currents of hKv1.5 and hKv4.3 were recorded in established HEK 293 cell lines stably expressing hKv1.5 (KCN5A) and hKv4.3 (KCND3) and IKACh was determined in isolated rat atrial myocytes as described previously[12][31][32] and in Supplemental Materials. […]
Effects of acacetin prodrug on cardiac potassium currents […]
Cells on a coverslip were transferred to an open cell chamber (0.5 ml) mounted on the stage of an inverted microscope and superfused with Tyrode’s solution at 2 mL/min. The whole cell patch-clamp technique was used as described previously.1, 2 The whole-cell membrane currents were measured using an EPC-10 amplifier and Pulse software (Heka Elektronik, Lambrecht, Germany). Borosilicate glass electrodes (1.2-mm OD) were pulled with a Brown/Flaming puller (model P-97, Sutter Instrument, Nato, CA) and had resistances of 1.5~2.5 MΩ when filled with the pipette solution. A 3-M KCl agar bridge was used as the reference electrode. The tip potential was zeroed before the patch pipette contacted the cell. After a giga-Ohm seal was obtained, the cell membrane was ruptured by applying gentle pressure to establish a whole-cell configuration. […] The liquid junction potential (14.7 mV) calculated with the software Clampex was not corrected in the experiment and data […]
Whole-cell current of IKACh was determined in isolated rat atrial myocytes. […]

[2] = Acute toxicity assessment in ICR mice, single i.v. dose; assay type: in vivo; conditions: both sexes, ICR, mouse, in vivo, iv, Bliss method
Procedure: (§1) The acute toxicity of acacetin prodrug was assessed in ICR mice (weighing 18~22 g) as described in Supplemental Materials, and the LD50 was calculated by the Bliss method. […]
(§2) Acute toxicity assessment of acacetin prodrug
(§3) The acute toxicity of acacetin prodrug was assessed in ICR mice (weighing 18~22 g) provided by the Laboratory Animal Center of Hong Kong University (Hong Kong, China) and maintained under controlled temperature conditions (23 °C), with a constant 12 h light-dark cycle and free access to food and water. Sixty ICR mice (male, 30; female, 30) were stratified by weight and randomly assigned to six groups: (n = 10 in each group, 5 male and 5 female).
(§4) Acacetin prodrug dissolved in 5% glucose was intravenously administered at 900, 810, 765, 720, 630 and 540 mg/kg through tail vein, respectively. The animals were closely observed for symptoms and mortality in 24 h. All of the surviving animals were euthanized at the end of the study, and their vital organs were individually observed for gross pathology by necropsy, and the LD50 was calculated by the Bliss method.11, 12

ICR mice = assay: as above; assay type: in vivo
Procedure: as §1, §2, §3, §4

In the case of `COc1ccc(-c2cc(=O)c3c(O)cc(OP(=O)([O-])[O-])cc3o2)cc1.[Na+].[Na+]` [acacetin prodrug, phosphate sodium salt of acacetin], the “inhibition of IK.ACh” value [1] is reported as “no significant inhibition”, the LD50 at 24 h ([2]; read-out: LD50 with 95% confidence level) is reported as 685 to 760 mg/kg and the LD50 at 24 h ([2]; intravenous (tail vein), single dose, read-out: LD50) is reported as 722 mg/kg. The mortality (ICR mice; i.v. dose of 900 mg/kg) was “all animals died”, the “survival within 24 h” value (ICR mice; i.v. dose of up to 540 mg/kg) was “All animals survived” and the “adverse effects or signs of toxicity in the surviving animals” value (ICR mice; i.v., 24 h observation) was “No significant adverse effects or signs of toxicity”. The “necropsy of the surviving mice” value (ICR mice; i.v., end of study) was “no gross pathological alteration” and the LD50 (ICR mice; intravenous (tail vein), single dose, Bliss method) was 721 mg/kg.
